Assay results: patent US5332726A, “Antithrombotic peptides and pseudopeptides” (Rhone-Poulenc Rorer Pharmaceuticals Inc., priority 1992, dated 1994)
Non-standard residues stand in square brackets, D forms with d. Residues, ends and D or L forms follow the SMILES beside them. NMeD = CN[C@@H](CC(=O)O)C(=O)O; Orn = NCCC[C@H](N)C(=O)O

Experiments:
[1] = biological target: fixed activated platelets (Homo sapiens, UniProt P05106+P08514); assay: Platelet Aggregation Assay (fibrinogen-mediated aggregation of fixed-activated platelets); format: cell-based; conditions: for inhibition at 25 µM: read-out: Inhibition of Fibrinogen Mediated Platelet Aggregation % inhibition at 25 μM; for IC50: fixed activated platelets, human fibrinogen 250 μg/ml, read-out: Inhibition of Fibrinogen Mediated Platelet Aggregation IC50; for inhibition at 100 µM: read-out: Inhibition of Fibrinogen Mediated Platelet Aggregation % inhibition at 100 μM
Chain of fixed activated platelets (P08514 32-1039): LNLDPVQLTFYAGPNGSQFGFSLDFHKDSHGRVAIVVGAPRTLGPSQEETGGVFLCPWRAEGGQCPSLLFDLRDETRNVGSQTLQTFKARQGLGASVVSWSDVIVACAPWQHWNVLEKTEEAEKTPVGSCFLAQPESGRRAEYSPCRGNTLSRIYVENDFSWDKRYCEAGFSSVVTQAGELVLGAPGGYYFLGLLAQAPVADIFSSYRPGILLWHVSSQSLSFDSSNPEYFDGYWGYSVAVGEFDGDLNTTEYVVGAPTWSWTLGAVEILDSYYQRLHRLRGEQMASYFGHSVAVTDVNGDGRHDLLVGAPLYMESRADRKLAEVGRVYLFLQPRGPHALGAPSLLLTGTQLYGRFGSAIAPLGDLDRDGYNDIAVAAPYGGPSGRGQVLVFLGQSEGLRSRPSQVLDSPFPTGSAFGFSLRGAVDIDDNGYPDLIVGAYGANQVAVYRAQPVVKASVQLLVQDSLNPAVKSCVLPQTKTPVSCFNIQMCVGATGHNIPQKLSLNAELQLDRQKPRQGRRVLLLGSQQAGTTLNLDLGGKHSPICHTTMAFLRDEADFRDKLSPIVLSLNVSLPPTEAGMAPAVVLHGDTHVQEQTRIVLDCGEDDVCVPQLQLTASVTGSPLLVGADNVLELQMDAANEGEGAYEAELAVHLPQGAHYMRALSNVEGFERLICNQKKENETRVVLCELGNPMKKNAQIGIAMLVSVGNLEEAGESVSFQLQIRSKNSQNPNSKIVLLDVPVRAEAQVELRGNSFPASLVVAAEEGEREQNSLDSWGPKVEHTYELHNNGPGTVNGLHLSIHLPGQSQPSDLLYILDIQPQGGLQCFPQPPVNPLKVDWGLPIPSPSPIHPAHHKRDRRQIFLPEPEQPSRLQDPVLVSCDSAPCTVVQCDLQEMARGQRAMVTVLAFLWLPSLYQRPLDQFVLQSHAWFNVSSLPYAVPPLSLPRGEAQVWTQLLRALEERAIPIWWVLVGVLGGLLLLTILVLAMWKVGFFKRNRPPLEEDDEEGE
Chain of fixed activated platelets (P05106 27-788): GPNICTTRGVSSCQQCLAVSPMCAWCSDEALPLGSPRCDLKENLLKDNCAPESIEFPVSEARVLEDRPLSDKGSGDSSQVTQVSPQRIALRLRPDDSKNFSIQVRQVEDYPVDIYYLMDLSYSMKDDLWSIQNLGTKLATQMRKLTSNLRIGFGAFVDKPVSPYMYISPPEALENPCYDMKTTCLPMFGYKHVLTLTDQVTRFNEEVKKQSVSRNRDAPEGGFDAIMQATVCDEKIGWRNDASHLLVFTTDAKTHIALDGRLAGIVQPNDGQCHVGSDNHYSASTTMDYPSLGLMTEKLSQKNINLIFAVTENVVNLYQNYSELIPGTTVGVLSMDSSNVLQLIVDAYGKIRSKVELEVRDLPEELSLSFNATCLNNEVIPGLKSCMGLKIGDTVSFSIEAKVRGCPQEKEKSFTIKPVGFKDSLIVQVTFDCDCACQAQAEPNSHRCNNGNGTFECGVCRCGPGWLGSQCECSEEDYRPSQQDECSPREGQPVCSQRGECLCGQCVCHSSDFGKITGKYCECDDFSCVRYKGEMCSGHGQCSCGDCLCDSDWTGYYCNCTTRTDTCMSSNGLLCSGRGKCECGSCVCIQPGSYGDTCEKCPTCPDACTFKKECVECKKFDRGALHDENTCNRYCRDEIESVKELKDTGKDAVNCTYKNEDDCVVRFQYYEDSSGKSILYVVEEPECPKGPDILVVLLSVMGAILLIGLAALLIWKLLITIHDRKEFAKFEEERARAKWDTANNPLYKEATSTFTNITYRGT
Experimental: PLATELET AGGREGATION ASSAY
Preparation of Fixed-Activated Platelets
To the activated platelets is added paraformaldehyde to a final concentration of 0.50% and this incubated at room temperature for 30 minutes. The fixed activated platelets are then collected by centrifugation at 650×g for 15 minutes.
Platelet Aggregation Assay
The fixed activated platelets are incubated with a selected dose of the compound to be tested for platelet aggregation inhibition for one minute and aggregation initiated by addition of human fibrinogen to a final concentration of 250 μg/ml. A platelet aggregation profiler Model PAP-4 is used to record the platelet aggregation.

[2] = biological target: thrombin-stimulated platelets (Homo sapiens, UniProt P05106+P08514); assay: Fibrinogen-Binding Assay (125I-fibrinogen binding to platelets); conditions: 125I-fibrinogen 0.176 μmol/liter, thrombin-stimulated platelets; read-out: Inhibition of 125I-Fibrinogen Binding to Platelets IC50
Chain of thrombin-stimulated platelets (P08514 32-1039): as the sequence (P08514 32-1039) above
Chain of thrombin-stimulated platelets (P05106 27-788): as the sequence (P05106 27-788) above
Experimental: Platelets are washed free of plasma constituents by the albumin density-gradient technique of Walsh, P. N., et al., Br. J. Haematol. […] After these additions, the final platelet count in the mixture is 1×10^11 /liter. After incubation for an additional 30 minutes at 22°-25° C., bound and free ligand are separated by centrifuging 50 μl of the mixture through 300 μl of 20% sucrose at 12,000×g for 4 minutes. The platelet pellet is then separated from the rest of the mixture to determine platelet-bound radioactivity. Nonspecific binding is measured in mixtures containing an excess of unlabeled ligand. […] The IC50 is derived by plotting residual fibrinogen binding against the logarithm of the sample compound's concentration.

SMILES | inhibition at 25 µM [1] [%] | IC50 [2] [µM] | IC50 [1] [µM] | inhibition at 100 µM [1] [%]
Cc1nccn1CCCCCCCCC(=O)N[C@@H](CC(=O)O)C(=O)N[C@H](C(=O)O)C(C)C | 74 | – | – | –
CCC(CCCCCCNC(=N)N)C(=O)NC(CC(=O)O)C(=O)N[C@H](C(=O)O)C(C)C (mixture of isomers) [8-Guanidino-2-(R,S)-ethyl-octanoyl-L-aspartyl-L-valine] | 30 | > 200 | – | –
N=C(N)NCCCCC(=O)NCC(=O)N[C@@H](CC(=O)O)C(=O)N1CCc2ccccc2C1 [2-[N-(5-guanidinopentanoyl)glycyl-L-aspartyl]-1,2,3,4-tetrahydroisoquinoline] | – | 130 | 20.4 | 48
CC(C)[C@H](NC(=O)[C@H](CC(=O)O)NC(=O)CN(C)C(=O)CCCNC(=N)N)C(=O)O [4-Guanidinobutanoyl-L-sarcosyl-L-aspartyl-L-valine] | 84 | 3.3 | 10.8 | –
CCN(CC(=O)N[C@@H](CC(=O)O)C(=O)N[C@H](C(=O)O)C(C)C)C(=O)CCCNC(=N)N [4-Guanidinobutanoyl-N-(ethyl)glycyl-L-aspartyl-L-valine] | 94 | 0.45 | 2.7 | –
CC(C)[C@H](NC(=O)[C@H](CC(=O)O)NC(=O)CCCCNC(=N)N)C(=O)O [5-guanidinovaleroyl-L-aspartyl-L-valine] | 28 | – | – | –
CC(C)[C@H](NC(=O)[C@H](CC(=O)O)NC(=O)CN(C)C(=O)CCCCCn1ccnc1)C(=O)O [6-(Imidazol-1-yl)-hexanoylsarcosyl-L-aspartyl] | 94 | – | – | –
CCCCOC(=O)[C@@H](NC(=O)[C@H](CC(=O)O)NC(=O)CN(C)C(=O)CCCCCNC(=N)N)C(C)C [6-Guanidinohexanoyl-sarcosyl-L-aspartyl-L-valine-butylester] | 90 | – | 4.5 | –
CCCCOC(=O)C[C@H](NC(=O)CN(C)C(=O)CCCCCNC(=N)N)C(=O)N[C@H](C(=O)O)C(C)C [6-Guanidinohexanoyl-sarcosyl-L-aspartyl-β-butylester-L-valine] | 18 | – | > 25 | –
CC(C)[C@H](NC(=O)[C@H](CC(=O)O)NC(=O)CCCCCCCNC(=N)N)c1nnn[nH]1 [8-Guanidinooctanoyl-L-aspartyl-L-valine-5-tetrazole] | 32 | – | > 25 | –
N=C(N)NCCCCCCCC(=O)NCC(=O)NCC(=O)O [8-Guanidinooctanoyl-glycyl-glycine] | 12 | – | – | –
CCC(C)[C@H](CCCNC(=N)N)NC(=O)[C@H](CC(=O)O)NC(=O)CCCCCCCCNC(=N)N (stereo partly drawn) [9-Guanidinononanoyl-L-aspartyl-((S)-4-amino-4-sec-butylbutyl)guanidine] | 76 | – | – | –
CC[C@@H](C)[C@H](CC(=O)NCCCCNC(=N)N)NC(=O)[C@H](CC(=O)O)NC(=O)CCCCCCCCNC(=N)N [9-Guanidinononanoyl-L-aspartyl-D-β-homoiso-leucyl-(des-carboxy)-L-arginine] | 94 | – | 3.3 | –
CC(C)[C@H](NC(=O)[C@H](CC(=O)O)NC(=O)CCCCCCCCNC(=N)N)C(=O)N[C@@H](CCCNC(=N)N)C(=O)O [9-Guanidinononanoyl-L-aspartyl-L-valine-L-arginine] | 98 | – | 0.22 | –

Next, values leading:

inhibition at 25 µM [1] [%] | IC50 [2] [µM] | IC50 [1] [µM] | inhibition at 100 µM [1] [%] | SMILES
4 | – | > 25 | – | CC(C)CC(CCCN)(NC(=O)[C@H](CC(=O)O)NC(=O)CCCCCCCCNC(=N)N)C(=O)O (stereo partly drawn) [9-Guanidinononanoyl-L-aspartyl-(R,S)-α-isobutylornithine]
0 | – | > 25 | – | COC(=O)[C@](CCCNC(=N)N)(CC(C)C)NC(=O)[C@H](CC(=O)O)NC(=O)CCCCCCCCNC(=N)N [9-Guanidinononanoyl-L-aspartyl-(S)-α-isobutyl-arginine methylester]
98 | – | – | – | CCC(C)C[C@@H](NC(=O)[C@H](CC(=O)O)NC(=O)CCCCCCCCNC(=N)N)C(=O)N[C@@H](CCCNC(=N)N)C(=O)O (stereo partly drawn) [9-Guanidinononanoyl-L-aspartyl-D-homoisoleucyl-L-arginine]
89 | – | 0.54 | – | C[C@H](NC(=O)[C@H](CC(=O)O)NC(=O)CCCCCCCCNC(=N)N)C(=O)N[C@@H](CCCNC(=N)N)C(=O)O [9-Guanidinononanoyl-L-aspartyl-L-alanyl-L-arginine]
91 | – | 1.7 | – | COC(=O)[C@H](CCCNC(=N)N)NC(=O)[C@H](CC(=O)O)NC(=O)CCCCCCCCNC(=N)N [9-Guanidinononanoyl-L-aspartyl-L-arginine methylester]
45 | – | > 25 | – | CC[C@H](C)[C@H](NC(=O)[C@@H](NC(=O)[C@H](CC(=O)O)NC(=O)CCCCCCCCNC(=N)N)[C@@H](C)CC)C(=O)O [9-Guanidinononanoyl-L-aspartyl-L-isoleucyl-L-isoleucine]
96 | – | 0.52 | – | CC(C)C[C@H](NC(=O)[C@H](CC(=O)O)NC(=O)CCCCCCCCNC(=N)N)C(=O)N[C@@H](CCCNC(=N)N)C(=O)O [9-Guanidinononanoyl-L-aspartyl-L-leucyl-L-arginine]
96 | – | 1.5 | – | CC(C)(C)[C@H](NC(=O)[C@H](CC(=O)O)NC(=O)CCCCCCCCNC(=N)N)C(=O)N[C@@H](CCCNC(=N)N)C(=O)O [9-Guanidinononanoyl-L-aspartyl-L-t-butylglycyl-L-arginine]
94 | – | – | – | CCC(C)C[C@H](NC(=O)[C@H](CC(=O)O)NC(=O)CCCCCCCCNC(=N)N)C(=O)N[C@@H](CCCNC(=N)N)C(=O)O (stereo partly drawn) [9-Guanidinononanoyl-L-aspartyl-homo-L-isoleucyl-L-arginine]
38 | – | – | – | CC[C@H](C)[C@@H](CN[C@@H](CCCNC(=N)N)C(=O)O)NC(=O)[C@H](CC(=O)O)NC(=O)CCCCCCCCNC(=N)N [9-Guanidinononanoyl-L-aspartyl-β-homo-L-isoleucyl psi(CH2 NH)-L-arginine]
94 | – | – | – | CC(C)C[C@@H](CCCNC(=N)N)NC(=O)[C@H](CC(=O)O)NC(=O)CCCCCCCCNC(=N)N [(R)-4-[N-(9-Guanidinononanoyl-L-aspartyl)-amino]-4-isobutylbutylguanidine]
– | – | > 64 | – | CC(C)[C@H](NC(=O)[C@H](CC(=O)O)N(C)C(=O)CNC(=O)[C@@H](N)CCCNC(=N)N)C(=O)O [L-arginyl-glycyl-L-N-methylaspartyl-L-valine] (H-RG[NMeD]V-OH)
– | – | 14.3 | 91 | N=C(N)NCCC[C@H](N)C(=O)NCC(=O)N[C@@H](CC(=O)O)C(=O)NCC(=O)O [L-arginylglycyl-L-aspartyl glycine] (H-RGDG-OH)
89 | – | – | – | CCC(C)C(CNC(=O)[C@H](CC(=O)O)NC(=O)CCCCCCCCNC(=N)N)C(=O)N[C@@H](CCCNC(=N)N)C(=O)O (stereo partly drawn) [N-(9-Guanidinononanoyl-L-aspartyl)-3-amino-2-sec-butyl propionic acid L-arginine amide]
– | 2.1 | – | – | CC(C)C[C@@H](CCC(=O)N[C@@H](CCCNC(=N)N)C(=O)O)NC(=O)[C@H](CC(=O)O)NC(=O)CCCCCCCCNC(=N)N [N-[N-(9-Guanidinononanoyl-L-aspartyl)-(R)-4-amino-4-isobutylbutyryl]-L-arginine]
– | – | – | 20 | CC(C)[C@H](NC(=O)[C@@H](N)CCCNC(=O)[C@@H](N)CCCNC(=N)N)C(=O)O [N-δ-(L-arginyl)-L-ornithyl-L-valine] (H-[Orn](Arg)-Val-OH)
